Molecules are shown by their SMILES. Several values for one entry are separate records, joined by “and”; a condition that tells them apart may be missing. Equal values may be shown once. Entries after “also recorded” stand apart in the source; their conditions may differ. Read-outs that look alike come from different tables or passages of the source. Marks after values point to notes of the source that are not given here.

This note sets out measurements from US11434205B2, “Substituted imidazole carboxylate derivatives and the use thereof” (priority 2018, dated 2022).

Data set [1] concerns rats. As to the kind of experiment: Loss of righting reflexes (LORR) assay in rats, ED50 by up and down method. In kind it is in vivo, rat. As to conditions: tail vein; for ED50: Rattus norvegicus. The procedure, abridged:
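ED50 obtained by up-and-down dosing, with righting-reflex loss over 30 s counted as general anesthesia. Compounds injected into the tail vein (0.1 mL/s) of male Sprague-Dawley rats weighing 250-300 g.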

Data set [2] deals with rats. As for the experimental part:
Adult male Sprague-Dawley rats (250-300 g) were selected for the experiment. […] The anesthesia effects of the compounds were assessed in rats using a LORR assay and a period >30 s was considered as an indicator of general anesthesia. Then the up and down method was used to determine 50% effective dose (ED50). The drugs were administered through the tail vein of rats in a volume of 0.6 mL and at a rate of 0.1 mL/s.

Data set [3] has as its system rats. As to the kind of experiment: Pharmacological characteristics at equivalent doses (2×ED50) in rats. The conditions noted are these: 2×ED50, tail vein; for Adverse reactions: Tremor (incidence): animals affected/animals; for Onset time: time of LORR; for Adverse reactions: Red urine (incidence): DMSO solution (DMSO alone 10/10). Put shortly: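 Anesthesia onset, recorded as time of LORR, was measured after a 2×ED50 tail-vein injection (0.6 mL, 0.1 mL/s). Animals were male Sprague-Dawley rats of 250-300 g, n=8.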

In data set [4] the test system is secretion of corticosterone, H295R cell line. As to the kind of experiment: cells. The conditions noted are these: for EC50: read-out: EC50 (Corticosterone). In kind it is cell-based. As for the experimental part:
(§1) The Effects of the Compounds on Adrenocortical Function In Vitro Test
(§2) Then secretion of the cortisol and corticosterone in the supernatant, was measured using HPLC-MS/MS method to determine whether the compounds of the present invention had adrenotoxic potential.

Data set [5] relates to secretion of cortisol, H295R cell line. Briefly: cells. In kind it is cell-based. The conditions noted are these: for EC50: read-out: EC50 (Cortisol). As for the experimental part:
as §1, §2

The subject of data set [6] is rats. In kind it is in vivo, rat. The conditions noted are these: for recovery time of the test animals' righting reflex: rats of the MAP/HR figures, 2×ED50, tail vein, same value in min. Here is the method:
The Effects of the Compounds on the Circulatory Function were Measured in Rats Using a Small Animal Implanted Physiological Signal Telemetry System
The anesthetic activity of the compounds was assessed in rats using a LORR assay and the up and down method was used to determine ED50. […] A small animal implantable physiological signal telemetry system from DSI (Data Science International, Inc.) was used to measure the changes in heart rate (HR) and blood pressure in rats during 30 min after administration. Then mean arterial pressure (MAP) and HR were used as representative indicators to determine hemodynamic stability of the compounds of the present invention in rats.
A small animal implantable physiological signal telemetry system from DSI (Data Science International, Inc.) including implants (RATHD-521, DSI, United States), receiver boards (RPC-1, DSI, United States), signal conversion devices (DEM, DSI, USA), perfusion glue (DSI, USA), fibrin membrane (DSI, USA), etc.
First, animal models were established. A left ventricular catheter, an abdominal aortic catheter and ECG wires were placed into rats. At least one week after surgery, data were recorded.
Administration procedure: rats were put into a restraint device with a 20 G indwelling catheter placed into a lateral tail vein. After administration of 0.2 mL heparin, a pre-filled extension tube was attached and taped to the tail vein to secure the extension tube. Then the rats were removed from the restraint device to a cage before placing them together on the signal receiver. […] Finally, the pharmacological effects, adverse reactions, and behavioural manifestations of the rats were observed and recorded
Data collection: After setting the data collection parameters on the software, the power of the implant was turned on to start data collection. In this experiment, data recording frequency was set to 15 s. Data collection was continuously recorded for 30 min before and after administration of the drugs in rats. After data acquisition, the test was stopped.

The subject of data set [7] is rats. As for the experimental part:
Pharmacological Effects of the Compounds on Continuous Infusion in Rats
Adult male Sprague-Dawley rats with body weight ranging from 250 to 300 gm were selected for continuous infusion test. […] Time to recovery of righting reflex from stopping infusion, and time to fully awake from stopping infusion were recorded.
The source holds these as a separate data set.

For data set [8], the system named is rats. In kind it is in vivo, rat. As to conditions: rats of the MAP/HR figures, 2×ED50, tail vein.
[9] abbreviates: H295R cell line, 0.1-10000 nM, HPLC-MS/MS, Table D3.
Where [10] appears, read: H295R cell line, 0.1-10000 nM, HPLC-MS/MS, Table E3.
[11] abbreviates: H295R, 0.1-10000 nM, HPLC-MS/MS.
The mark [12] stands for this setting: continuous tail vein infusion at 2×MIR, LORR maintained 1 hour, Table C4.
The mark [13] stands for this setting: continuous tail vein infusion at 2×MIR, LORR maintained 1 hour, Table D4.
Setting [14] is: continuous tail vein infusion at 2×MIR, LORR maintained 1 hour, Table E4.

With `COC(=O)C1(OC(=O)c2cncn2[C@H](C)c2ccccc2)CC1` [CPMM, cyclopropyl methoxycarbonyl methylate, reference compound], the “ED50 (mg/kg)” value in the data set with rats [1] (brackets = 95% confidence limit) is 0.78 (0.74-0.82)* mg/kg. Also, in the data set with rats [2], the Approximate therapeutic index is reported as >10. In the data set with rats [2], the “Minimal lethal dose” value is >7.8 mg/kg. The “Adverse reactions: Convulsions (incidence)” value is “Convulsions (4/10), Tremor and 4/10 and Convulsions (4/10), and (4/10),” in the data set on rats [3]; 3/6 with rats [7] (continuous infusion 2×MIR). Further, the “Adverse reactions: Myoclonus (incidence)” value is recorded as “(5/10), Myoclonus (5/10); also recorded: Myoclonus (5/10)” in the data set on rats [3] and “Myoclonus (5/6)” in the data set on rats [7] (continuous infusion 2×MIR). In addition, the “Righting reflex duration” value with rats [3] came to 1.62 ± 0.63 min. In addition, the “Adverse reactions: Tremor (incidence)” value was “(5/10), Myoclonus (5/10) and 5/10 and Tremor (5/10), and (5/10),” in the data set on rats [3]; 5/6 in the data set on rats [7] (continuous infusion 2×MIR). For the same compound, the “Onset time” value is 0.26 ± 0.08 min in the data set on rats [3]; 3 to 4 min in the data set on rats [7] (setting [12]); 3 to 4 min in the data set on rats [7] (setting [13]); 3 to 4 min in the data set on rats [7] (setting [14]); 3 to 4 min in the data set with rats [7] (emulsion, continuous infusion at 2×MIR). The “Corticosterone as an indicator to determine the presence of inhibition” value in data set [4] (setting [9]) was 1; in data set [4] (setting [10]) it was 1; in data set [4] (H295R, Table A3), 1; in data set [4] (H295R, Table B3), 1; in data set [4] (H295R, Table C3), 1. Besides, the EC50 was > 100 nM in data set [4] (setting [9]); > 100 nM in data set [4] (setting [10]); > 100 nM in data set [4] (setting [11]); > 10 nM in data set [5] (setting [9]); > 10 nM in data set [5] (setting [10]); > 10 nM in data set [5] (setting [11]). In addition, the “Cortisol as an indicator to determine the presence of inhibition” value in data set [5] (setting [9]) came out at 1; in data set [5] (setting [10]) it was 1; in data set [5] (H295R, Table A3), 1; in data set [5] (H295R, Table B3) it was 1; in data set [5] (H295R, Table C3), 1. In addition, the “effect on the circulatory function (MAP, HR)” value with rats [6] (rats, 2×ED50, 30 min after administration) is given as “almost no inhibitory effect on the circulatory function”. Moreover, the “Recovery time after stopping infusion” value in the data set with rats [7] (after 1 hour infusion at 2×MIR), in the data set on rats [7] (setting [12]), in the data set with rats [7] (setting [13]) and in the data set on rats [7] (setting [14]) was 7 to 8 min throughout.
In the data set with rats [1] (class symbols), `CC(=O)C1(OC(=O)c2cncn2[C@H](C)c2ccccc2)CC1` [Compound C1] displayed a median effective dose (ED50) of 0.01 to 0.1 mg/kg. In the data set on rats [2], the Approximate therapeutic index was >90 and the “Minimal lethal dose” value is given as >20 mg/kg. In the data set with rats [3], the “Righting reflex duration” value turned out to be 1.9 ± 0.64 min; the “Adverse reactions: Red urine (incidence)” value is on record as “(8/8)”; the “Adverse reactions: Tremor (incidence)” value is on record as “Tremor (8/8), Red urine”; the “Onset time” value is given as 0.15 ± 0.09 min. The “recovery time of the test animals' righting reflex” value in the data set with rats [6] is listed as 2.17 min. Besides, the “recovery time of the test animals' righting reflex” value in the data set on rats [8] was determined as 130 s.
In turn, `C=CC1(OC(=O)c2cncn2[C@H](C)c2ccccc2)COC1` [Compound D7] had an ED50 in the data set with rats [1] (class symbols) of 0.5 to 1 mg/kg. Besides, in the data set on rats [2], the Approximate therapeutic index is given as >10 and the “Minimal lethal dose” value was >6 mg/kg. Also, in the data set with rats [3], the “Righting reflex duration” value was determined as 3.20 ± 0.81 min, the “Adverse reactions: Red urine (incidence)” value was “Red urine (8/8)” and the “Onset time” value was 0.10 ± 0.01 min. The “recovery time of the test animals' righting reflex” value in the data set with rats [6] amounted to 6.83 min. The “recovery time of the test animals' righting reflex” value with rats [8] was found to be 410 s.
The compound `C=C=CC1(OC(=O)c2cncn2[C@H](C)c2ccccc2)CCOCC1` [Compound D34] gave a 50% effective dose (ED50) with rats [1] (class symbols) of 0.5 to 1 mg/kg. In the data set on rats [2], the Approximate therapeutic index is recorded as >13 and the “Minimal lethal dose” value was >8 mg/kg. Also, in the data set with rats [3], the “Righting reflex duration” value turned out to be 4.50 ± 0.86 min, the “Adverse reactions: Red urine (incidence)” value was “Red urine (8/8)” and the “Onset time” value is recorded as 0.11 ± 0.04 min. The “recovery time of the test animals' righting reflex” value with rats [6] is reported as 2.83 min. For the same compound, the “recovery time of the test animals' righting reflex” value with rats [8] came to 170 s.
As to `C[C@H](c1ccccc1)n1cnc(F)c1C(=O)OC1CCC1` [Compound E9], in the data set with rats [1] (class symbols), the “ED50 (mg/kg)” value is reported as “B (B means that the measured ED50 is in the range of 0.10-0.50 mg/kg (excluding 0.10 mg/kg, including 0.50 mg/kg).)”. In the data set with rats [2], the Approximate therapeutic index was >48 and the “Minimal lethal dose” value is recorded as >6 mg/kg. In the data set on rats [3], the “Righting reflex duration” value is 1.24 ± 0.79 min, the “Sedation duration (mg/kg)” value is reported as 9.29 ± 2.07, the “Adverse reactions: Red urine (incidence)” value is on record as “(8/8)” and the “Onset time” value is 0.42 ± 0.20 min. In addition, the “recovery time of the test animals' righting reflex” value in the data set with rats [6] is listed as 1.28 min. Moreover, the “recovery time of the test animals' righting reflex” value in the data set on rats [8] came to 77 s.
In turn, `C[C@H](c1ccccc1)n1cnc(F)c1C(=O)OC1COC1` [Compound E10] gave an ED50 in the data set with rats [1] (class symbols) of 0.5 to 1 mg/kg. In addition, in the data set on rats [2], the Approximate therapeutic index is >14 and the “Minimal lethal dose” value is >10 mg/kg. Besides, in the data set with rats [3], the “Righting reflex duration” value turned out to be 2.59 ± 0.85 min, the “Adverse reactions: Red urine (incidence)” value is “(8/8)” and the “Onset time” value was determined as 0.21 ± 0.05 min. The “recovery time of the test animals' righting reflex” value with rats [6] stood at 2.70 min. The “recovery time of the test animals' righting reflex” value with rats [8] was 162 s.
`C[C@H](c1ccccc1)n1cnc(F)c1C(=O)OC1CSC1` [Compound E11] yielded a median effective dose (ED50) with rats [1] (class symbols) of 0.01 to 0.1 mg/kg. Also, in the data set on rats [2], the Approximate therapeutic index is on record as >60 and the “Minimal lethal dose” value was >4 mg/kg. For the same compound, in the data set on rats [3], the “Righting reflex duration” value worked out at 1.52 ± 0.53 min, the “Adverse reactions: Red urine (incidence)” value is reported as “(8/8)” and the “Onset time” value turned out to be 0.57 ± 0.25 min. In the data set on rats [6], the “recovery time of the test animals' righting reflex” value worked out at 1.55 min. The “recovery time of the test animals' righting reflex” value with rats [8] stood at 93 s.
For `CC#CC1(OC(=O)c2c(F)ncn2[C@H](C)c2ccccc2)COC1` [Compound E15], the ED50 in the data set with rats [1] (class symbols) was in the range of 0.1 to 0.5 mg/kg. Moreover, in the data set on rats [2], the Approximate therapeutic index is given as >32 and the “Minimal lethal dose” value is reported as >5 mg/kg. Moreover, in the data set with rats [3], the “Righting reflex duration” value was determined as 1.10 ± 0.89 min; the “Adverse reactions: Red urine (incidence)” value is given as “urine (8/8)”; the “Adverse reactions: Tremor (incidence)” value is “(2/8), Red”; the “Onset time” value came to 0.42 ± 0.13 min. For the same compound, the “recovery time of the test animals' righting reflex” value in the data set with rats [6] turned out to be 1.20 min. Also, the “recovery time of the test animals' righting reflex” value in the data set on rats [8] was determined as 72 s.

A word on the EC50: it is the concentration needed to bring the measured effect to its halfway point. The term ED50 denotes the dose that gives a 50% effect, or the effect in half of the subjects. Higher therefore signals weaker potency.
